What follows are targets tested with NC(=O)CCCCC1CCSS1 [lipoamide] (assay: thermal stability z-score vs DMSO; higher = more thermally stabilized by treatment). Conditions: HeLa; lipoamide concentration 100 µM; arsenate co-treatment: none.
Protocol: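 Cellular thermal proteome profiling in HeLa cells. Cells were treated with 100 µM lipoamide for 1 h, with or without 1 mM arsenate for a further 1 h, then heated to ten temperatures (37-66.3 °C), and soluble protein was quantified by TMT mass spectrometry relative to 0.1% DMSO controls. The thermal stability score (sum of log2 fold changes minus the abundance score) was transformed to a z-score; mean of n = 3 experiments.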
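Further: each temperature applied for 3 min, abundance score taken as mean log2 fold change at the two lowest temperatures, z-score obtained by mean subtraction and division by SD.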

Sequence of UniProt P46939 (P46939 whole entry): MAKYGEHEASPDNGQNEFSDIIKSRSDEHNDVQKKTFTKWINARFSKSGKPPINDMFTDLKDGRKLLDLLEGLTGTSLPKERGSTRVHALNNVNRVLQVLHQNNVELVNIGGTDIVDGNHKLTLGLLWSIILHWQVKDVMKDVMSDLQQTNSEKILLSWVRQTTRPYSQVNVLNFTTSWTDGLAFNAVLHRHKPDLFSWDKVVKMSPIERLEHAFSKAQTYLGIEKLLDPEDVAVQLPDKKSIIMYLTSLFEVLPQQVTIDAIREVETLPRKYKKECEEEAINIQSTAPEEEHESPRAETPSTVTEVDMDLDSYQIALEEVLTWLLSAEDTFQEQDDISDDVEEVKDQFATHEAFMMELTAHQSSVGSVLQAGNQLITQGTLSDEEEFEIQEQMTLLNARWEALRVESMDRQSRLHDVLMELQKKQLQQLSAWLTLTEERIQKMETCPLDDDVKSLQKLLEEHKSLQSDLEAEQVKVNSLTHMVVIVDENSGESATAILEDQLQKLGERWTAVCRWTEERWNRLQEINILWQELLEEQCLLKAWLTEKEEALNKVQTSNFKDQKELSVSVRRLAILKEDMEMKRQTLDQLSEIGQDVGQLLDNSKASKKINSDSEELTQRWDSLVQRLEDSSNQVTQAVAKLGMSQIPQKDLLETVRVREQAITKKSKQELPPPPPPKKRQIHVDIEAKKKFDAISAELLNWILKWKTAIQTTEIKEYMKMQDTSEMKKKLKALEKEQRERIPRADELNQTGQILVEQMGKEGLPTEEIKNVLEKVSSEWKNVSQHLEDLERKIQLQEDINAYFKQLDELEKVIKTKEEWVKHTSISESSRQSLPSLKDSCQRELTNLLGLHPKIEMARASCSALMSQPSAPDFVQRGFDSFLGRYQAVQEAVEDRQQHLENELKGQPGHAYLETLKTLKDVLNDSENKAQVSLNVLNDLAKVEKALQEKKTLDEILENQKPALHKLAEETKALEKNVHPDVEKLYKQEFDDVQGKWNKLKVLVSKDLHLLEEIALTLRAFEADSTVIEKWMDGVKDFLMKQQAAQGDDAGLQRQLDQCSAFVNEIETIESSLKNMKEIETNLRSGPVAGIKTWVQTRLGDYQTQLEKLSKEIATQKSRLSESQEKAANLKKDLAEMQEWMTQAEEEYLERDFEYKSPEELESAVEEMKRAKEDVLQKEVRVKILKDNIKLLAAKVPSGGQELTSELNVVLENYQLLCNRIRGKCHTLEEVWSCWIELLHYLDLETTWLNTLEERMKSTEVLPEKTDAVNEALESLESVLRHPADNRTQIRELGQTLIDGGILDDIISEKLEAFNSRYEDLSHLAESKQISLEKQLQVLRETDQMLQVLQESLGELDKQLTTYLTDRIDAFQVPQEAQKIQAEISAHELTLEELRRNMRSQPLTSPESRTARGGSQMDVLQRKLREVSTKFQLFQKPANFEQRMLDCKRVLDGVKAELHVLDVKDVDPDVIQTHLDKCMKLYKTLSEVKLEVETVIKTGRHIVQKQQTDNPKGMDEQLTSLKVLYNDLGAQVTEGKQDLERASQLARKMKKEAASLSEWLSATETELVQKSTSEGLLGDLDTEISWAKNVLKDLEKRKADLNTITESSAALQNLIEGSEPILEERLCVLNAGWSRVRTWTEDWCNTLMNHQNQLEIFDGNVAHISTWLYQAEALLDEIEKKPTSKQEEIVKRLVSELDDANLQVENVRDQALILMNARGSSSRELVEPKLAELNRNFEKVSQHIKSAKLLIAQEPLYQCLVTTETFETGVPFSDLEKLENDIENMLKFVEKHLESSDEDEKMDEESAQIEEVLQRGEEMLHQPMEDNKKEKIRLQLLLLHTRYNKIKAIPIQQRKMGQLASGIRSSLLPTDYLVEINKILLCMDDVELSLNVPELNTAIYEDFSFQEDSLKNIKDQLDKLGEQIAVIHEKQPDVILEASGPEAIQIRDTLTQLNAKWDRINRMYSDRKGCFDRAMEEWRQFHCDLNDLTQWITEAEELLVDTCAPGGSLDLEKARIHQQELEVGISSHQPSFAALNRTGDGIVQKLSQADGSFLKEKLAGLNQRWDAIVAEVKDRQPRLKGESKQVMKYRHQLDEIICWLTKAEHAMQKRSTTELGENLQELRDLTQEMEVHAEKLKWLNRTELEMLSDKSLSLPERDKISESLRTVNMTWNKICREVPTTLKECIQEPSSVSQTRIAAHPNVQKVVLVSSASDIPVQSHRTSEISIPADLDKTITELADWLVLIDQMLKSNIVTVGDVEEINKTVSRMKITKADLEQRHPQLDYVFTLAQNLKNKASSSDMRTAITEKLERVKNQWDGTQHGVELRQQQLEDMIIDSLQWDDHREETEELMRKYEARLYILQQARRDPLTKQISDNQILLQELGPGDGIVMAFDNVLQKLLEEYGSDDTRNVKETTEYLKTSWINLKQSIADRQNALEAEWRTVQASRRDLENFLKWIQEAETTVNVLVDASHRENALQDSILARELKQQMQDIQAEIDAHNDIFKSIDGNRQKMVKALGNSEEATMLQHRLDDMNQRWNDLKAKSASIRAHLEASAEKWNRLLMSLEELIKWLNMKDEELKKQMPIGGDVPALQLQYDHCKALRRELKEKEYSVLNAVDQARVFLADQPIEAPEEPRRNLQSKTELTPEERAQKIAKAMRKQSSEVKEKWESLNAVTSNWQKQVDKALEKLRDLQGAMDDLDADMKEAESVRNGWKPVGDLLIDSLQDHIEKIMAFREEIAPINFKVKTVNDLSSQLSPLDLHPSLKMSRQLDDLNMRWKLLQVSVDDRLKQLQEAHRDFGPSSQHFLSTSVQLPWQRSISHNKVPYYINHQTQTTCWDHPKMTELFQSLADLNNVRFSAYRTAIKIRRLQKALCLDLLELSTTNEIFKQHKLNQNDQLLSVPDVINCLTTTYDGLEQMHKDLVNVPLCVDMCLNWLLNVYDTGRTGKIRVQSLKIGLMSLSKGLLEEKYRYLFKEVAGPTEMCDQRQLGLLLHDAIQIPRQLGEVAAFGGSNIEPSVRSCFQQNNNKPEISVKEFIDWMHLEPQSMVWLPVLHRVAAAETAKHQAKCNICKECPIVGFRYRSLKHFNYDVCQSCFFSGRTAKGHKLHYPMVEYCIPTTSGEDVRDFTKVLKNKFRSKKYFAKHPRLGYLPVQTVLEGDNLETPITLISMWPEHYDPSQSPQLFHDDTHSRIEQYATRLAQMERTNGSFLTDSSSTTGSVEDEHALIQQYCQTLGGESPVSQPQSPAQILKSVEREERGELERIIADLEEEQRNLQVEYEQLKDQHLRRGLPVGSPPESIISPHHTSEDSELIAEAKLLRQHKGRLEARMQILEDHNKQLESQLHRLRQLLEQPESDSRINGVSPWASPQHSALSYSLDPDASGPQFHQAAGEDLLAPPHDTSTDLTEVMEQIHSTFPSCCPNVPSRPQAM
Sequence of UniProt Q9H845 (Q9H845 whole entry): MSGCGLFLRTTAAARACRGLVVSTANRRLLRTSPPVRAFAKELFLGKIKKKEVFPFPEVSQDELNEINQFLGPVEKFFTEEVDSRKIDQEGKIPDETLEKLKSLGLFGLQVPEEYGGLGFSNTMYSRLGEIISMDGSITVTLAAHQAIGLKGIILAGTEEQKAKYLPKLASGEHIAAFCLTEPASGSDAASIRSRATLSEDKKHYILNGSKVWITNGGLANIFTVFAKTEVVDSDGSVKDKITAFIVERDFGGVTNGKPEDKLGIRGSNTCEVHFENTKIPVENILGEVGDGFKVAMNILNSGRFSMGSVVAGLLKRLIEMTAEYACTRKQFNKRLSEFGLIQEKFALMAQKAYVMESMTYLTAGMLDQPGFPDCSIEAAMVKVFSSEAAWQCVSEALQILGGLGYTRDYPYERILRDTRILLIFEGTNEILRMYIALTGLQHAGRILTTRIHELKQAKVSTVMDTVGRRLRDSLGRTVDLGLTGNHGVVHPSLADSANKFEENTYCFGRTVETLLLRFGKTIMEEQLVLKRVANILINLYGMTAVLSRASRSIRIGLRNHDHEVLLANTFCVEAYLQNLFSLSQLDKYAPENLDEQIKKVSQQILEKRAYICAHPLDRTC
Sequence of UniProt Q8WZ82 (Q8WZ82 whole entry): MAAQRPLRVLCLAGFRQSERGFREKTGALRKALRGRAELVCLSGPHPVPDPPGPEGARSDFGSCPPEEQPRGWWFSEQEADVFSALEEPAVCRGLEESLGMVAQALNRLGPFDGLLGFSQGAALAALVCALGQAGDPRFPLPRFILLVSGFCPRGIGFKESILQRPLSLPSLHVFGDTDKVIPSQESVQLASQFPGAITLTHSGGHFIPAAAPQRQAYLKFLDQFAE
Sequence of UniProt O14737 (O14737 whole entry): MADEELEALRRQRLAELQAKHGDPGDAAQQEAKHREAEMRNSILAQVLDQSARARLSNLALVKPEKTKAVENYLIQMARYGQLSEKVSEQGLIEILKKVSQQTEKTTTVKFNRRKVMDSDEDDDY
Sequence of UniProt Q13868 (Q13868 whole entry): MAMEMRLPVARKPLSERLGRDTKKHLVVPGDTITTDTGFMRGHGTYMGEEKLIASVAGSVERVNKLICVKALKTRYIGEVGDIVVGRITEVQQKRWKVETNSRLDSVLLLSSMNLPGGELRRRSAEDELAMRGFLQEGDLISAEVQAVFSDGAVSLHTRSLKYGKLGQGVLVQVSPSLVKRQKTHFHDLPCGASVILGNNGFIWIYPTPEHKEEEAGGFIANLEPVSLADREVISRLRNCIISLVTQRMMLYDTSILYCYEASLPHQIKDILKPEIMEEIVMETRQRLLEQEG
Sequence of UniProt Q9NPA8 (Q9NPA8 whole entry): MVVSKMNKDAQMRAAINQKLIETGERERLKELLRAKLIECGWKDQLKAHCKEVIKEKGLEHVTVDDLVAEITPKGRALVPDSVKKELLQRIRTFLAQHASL
Sequence of UniProt Q9NUM4 (Q9NUM4 whole entry): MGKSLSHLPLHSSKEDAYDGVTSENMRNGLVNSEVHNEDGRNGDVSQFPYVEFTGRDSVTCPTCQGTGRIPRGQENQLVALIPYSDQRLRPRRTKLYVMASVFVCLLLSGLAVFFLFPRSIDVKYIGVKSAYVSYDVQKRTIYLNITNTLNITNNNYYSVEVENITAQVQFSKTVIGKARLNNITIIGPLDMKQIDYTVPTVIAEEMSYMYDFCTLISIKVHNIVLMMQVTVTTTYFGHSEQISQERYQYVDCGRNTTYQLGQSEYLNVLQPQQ

**Q.** With HK1 (UniProt P19367) as the target, how does the thermal stability z-score read?
**A.** 0.466

**Q.** With AKAP1 (UniProt Q92667) as the target, how does the thermal stability z-score read?
**A.** 0.652

**Q.** With LDB1 (UniProt Q86U70) as the target, how does the thermal stability z-score read?
**A.** 1.15

**Q.** With PTGES2 (UniProt Q9H7Z7) as the target, how does the thermal stability z-score read?
**A.** 0.0528

**Q.** How did the thermal stability z-score turn out when HNRNPA3 (UniProt P51991) was run?
**A.** 0.437

**Q.** Which thermal stability z-score does the source give for MTO1 (UniProt Q9Y2Z2) here?
**A.** 0.263

**Q.** For SYNRG (UniProt Q9UMZ2), which thermal stability z-score is on record?
**A.** -0.18

**Q.** For APEX2 (UniProt Q9UBZ4), which thermal stability z-score is on record?
**A.** 0.209

**Q.** How did the thermal stability z-score turn out when NAA20 (UniProt P61599) was run?
**A.** 0.153

**Q.** With SPAG1 (UniProt Q07617) as the target, how does the thermal stability z-score read?
**A.** 0.0754

**Q.** For C6ORF106 (UniProt Q9H6K1), which thermal stability z-score is on record?
**A.** -0.401

**Q.** UBAP2L (UniProt Q14157) was tested. Which thermal stability z-score did it give?
**A.** 0.413

**Q.** For FH (UniProt P07954), which thermal stability z-score is on record?
**A.** 0.0826

**Q.** How did the thermal stability z-score turn out when TMEM106B (UniProt Q9NUM4) was run?
**A.** 0.154

**Q.** For PDCD5 (UniProt O14737), which thermal stability z-score is on record?
**A.** 0.727

**Q.** Which thermal stability z-score does the source give for PDAP1 (UniProt Q13442) here?
**A.** 0.298

**Q.** NOP56 (UniProt O00567) was tested. Which thermal stability z-score did it give?
**A.** -0.0331

**Q.** Which thermal stability z-score does the source give for ENY2 (UniProt Q9NPA8) here?
**A.** 0.42

**Q.** With NOP58 (UniProt Q9Y2X3) as the target, how does the thermal stability z-score read?
**A.** -0.0387

**Q.** For OVCA2 (UniProt Q8WZ82), which thermal stability z-score is on record?
**A.** 0.0328

**Q.** SCARB2 (UniProt Q14108) was tested. Which thermal stability z-score did it give?
**A.** 0.346

**Q.** With MAP1S (UniProt Q66K74) as the target, how does the thermal stability z-score read?
**A.** -0.342

**Q.** Which thermal stability z-score does the source give for UTRN (UniProt P46939) here?
**A.** -0.0132

**Q.** With MYO6 (UniProt Q9UM54) as the target, how does the thermal stability z-score read?
**A.** 0.26

**Q.** Which thermal stability z-score does the source give for SMG1 (UniProt Q96Q15) here?
**A.** -0.117

**Q.** With SF3B2 (UniProt Q13435) as the target, how does the thermal stability z-score read?
**A.** 0.403

**Q.** With EXOSC2 (UniProt Q13868) as the target, how does the thermal stability z-score read?
**A.** 0.234

**Q.** How did the thermal stability z-score turn out when ACAD9 (UniProt Q9H845) was run?
**A.** 0.0316

**Q.** LGMN (UniProt Q99538) was tested. Which thermal stability z-score did it give?
**A.** -0.461

**Q.** Which thermal stability z-score does the source give for COTL1 (UniProt Q14019) here?
**A.** 1.02

**Q.** With NLN (UniProt Q9BYT8) as the target, how does the thermal stability z-score read?
**A.** 0.000162

**Q.** For NMRAL1 (UniProt Q9HBL8), which thermal stability z-score is on record?
**A.** 1.45

**Q.** FOLR1 (UniProt P15328) was tested. Which thermal stability z-score did it give?
**A.** 0.376

**Q.** For CHAMP1 (UniProt Q96JM3), which thermal stability z-score is on record?
**A.** -0.497

**Q.** For RPS10 (UniProt P46783), which thermal stability z-score is on record?
**A.** 0.406

**Q.** Which thermal stability z-score does the source give for CAPZB (UniProt P47756) here?
**A.** 0.144

What follows are targets tested with O=[As]([O-])(O)O.[K+] [potassium arsenate] in the same assay as above. Conditions: HeLa; arsenate concentration 1 mM.
Protocol: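 Cellular thermal proteome profiling in HeLa cells treated with 1 mM arsenate for 1 h (DMSO pretreatment), heated to ten temperatures (37-66.3 °C). Soluble protein was quantified by TMT mass spectrometry relative to DMSO controls; the thermal stability score was transformed to a z-score; mean of n = 3 experiments.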

**Q.** For PRRC2B (UniProt Q5JSZ5), which thermal stability z-score is on record?
**A.** -0.412

**Q.** With NSDHL (UniProt Q15738) as the target, how does the thermal stability z-score read?
**A.** -0.401

**Q.** How did the thermal stability z-score turn out when TTC39C (UniProt Q8N584) was run?
**A.** 0.0855

**Q.** With VMP1 (UniProt Q96GC9) as the target, how does the thermal stability z-score read?
**A.** -0.372

**Q.** With QTRT1 (UniProt Q9BXR0) as the target, how does the thermal stability z-score read?
**A.** -0.729

**Q.** With APRT (UniProt P07741) as the target, how does the thermal stability z-score read?
**A.** 0.345

**Q.** SERPINB6 (UniProt P35237) was tested. Which thermal stability z-score did it give?
**A.** -1.01

**Q.** How did the thermal stability z-score turn out when EIF3L (UniProt Q9Y262) was run?
**A.** -0.297

**Q.** How did the thermal stability z-score turn out when RPS6KB2 (UniProt Q9UBS0) was run?
**A.** -0.0668

**Q.** How did the thermal stability z-score turn out when TXLNA (UniProt P40222) was run?
**A.** 2.4

**Q.** FKBP8 (UniProt Q14318) was tested. Which thermal stability z-score did it give?
**A.** 1.05

**Q.** With ACBD5 (UniProt Q5T8D3) as the target, how does the thermal stability z-score read?
**A.** 0.243

**Q.** METTL5 (UniProt Q9NRN9) was tested. Which thermal stability z-score did it give?
**A.** 0.233

**Q.** SOGA1 (UniProt O94964) was tested. Which thermal stability z-score did it give?
**A.** -0.097

**Q.** TBC1D2 (UniProt Q9BYX2) was tested. Which thermal stability z-score did it give?
**A.** 0.225

**Q.** With FRRS1 (UniProt Q6ZNA5) as the target, how does the thermal stability z-score read?
**A.** 0.586

**Q.** How did the thermal stability z-score turn out when UBL7 (UniProt Q96S82) was run?
**A.** 0.168

**Q.** How did the thermal stability z-score turn out when PBLD (UniProt P30039) was run?
**A.** -0.578

**Q.** For RPL13A (UniProt P40429), which thermal stability z-score is on record?
**A.** -0.496

**Q.** With TICAM1 (UniProt Q8IUC6) as the target, how does the thermal stability z-score read?
**A.** -0.325

**Q.** Which thermal stability z-score does the source give for NASP (UniProt P49321) here?
**A.** 0.578

**Q.** ATRIP (UniProt Q8WXE1) was tested. Which thermal stability z-score did it give?
**A.** -0.137

**Q.** With SLC7A5 (UniProt Q01650) as the target, how does the thermal stability z-score read?
**A.** 1.47

**Q.** How did the thermal stability z-score turn out when RRAS (UniProt P10301) was run?
**A.** 0.844

**Q.** Which thermal stability z-score does the source give for GOSR1 (UniProt O95249) here?
**A.** -0.0465

**Q.** RBM15 (UniProt Q96T37) was tested. Which thermal stability z-score did it give?
**A.** -0.321

**Q.** PSMC1 (UniProt P62191) was tested. Which thermal stability z-score did it give?
**A.** -0.724

**Q.** HGS (UniProt O14964) was tested. Which thermal stability z-score did it give?
**A.** 0.102

**Q.** LCMT1 (UniProt Q9UIC8) was tested. Which thermal stability z-score did it give?
**A.** -0.0988

**Q.** LRBA (UniProt P50851) was tested. Which thermal stability z-score did it give?
**A.** 0.326

**Q.** How did the thermal stability z-score turn out when XPR1 (UniProt Q9UBH6) was run?
**A.** 0.209

**Q.** With PTPN9 (UniProt P43378) as the target, how does the thermal stability z-score read?
**A.** 0.0393

**Q.** For SRGN (UniProt P10124), which thermal stability z-score is on record?
**A.** -0.673

**Q.** Which thermal stability z-score does the source give for FDPS (UniProt P14324) here?
**A.** -0.437

**Q.** Which thermal stability z-score does the source give for GNB4 (UniProt Q9HAV0) here?
**A.** -0.65

**Q.** With HK1 (UniProt P19367) as the target, how does the thermal stability z-score read?
**A.** 0.159

**Q.** Which thermal stability z-score does the source give for AKAP1 (UniProt Q92667) here?
**A.** 0.73

**Q.** How did the thermal stability z-score turn out when LDB1 (UniProt Q86U70) was run?
**A.** -0.783

**Q.** With PTGES2 (UniProt Q9H7Z7) as the target, how does the thermal stability z-score read?
**A.** 0.178

**Q.** For HNRNPA3 (UniProt P51991), which thermal stability z-score is on record?
**A.** -0.49

**Q.** MTO1 (UniProt Q9Y2Z2) was tested. Which thermal stability z-score did it give?
**A.** 1.97

**Q.** How did the thermal stability z-score turn out when SYNRG (UniProt Q9UMZ2) was run?
**A.** 0.478

**Q.** With APEX2 (UniProt Q9UBZ4) as the target, how does the thermal stability z-score read?
**A.** -0.747

**Q.** Which thermal stability z-score does the source give for NAA20 (UniProt P61599) here?
**A.** 0.0823

**Q.** SPAG1 (UniProt Q07617) was tested. Which thermal stability z-score did it give?
**A.** -0.401

**Q.** How did the thermal stability z-score turn out when C6ORF106 (UniProt Q9H6K1) was run?
**A.** 0.242

**Q.** UBAP2L (UniProt Q14157) was tested. Which thermal stability z-score did it give?
**A.** -0.116

**Q.** Which thermal stability z-score does the source give for FH (UniProt P07954) here?
**A.** -1.66

**Q.** With TMEM106B (UniProt Q9NUM4) as the target, how does the thermal stability z-score read?
**A.** 0.192

**Q.** For PDCD5 (UniProt O14737), which thermal stability z-score is on record?
**A.** 0.417

**Q.** PDAP1 (UniProt Q13442) was tested. Which thermal stability z-score did it give?
**A.** -0.0329

**Q.** How did the thermal stability z-score turn out when NOP56 (UniProt O00567) was run?
**A.** 0.516

**Q.** For ENY2 (UniProt Q9NPA8), which thermal stability z-score is on record?
**A.** 0.181

**Q.** For NOP58 (UniProt Q9Y2X3), which thermal stability z-score is on record?
**A.** 0.471

**Q.** With OVCA2 (UniProt Q8WZ82) as the target, how does the thermal stability z-score read?
**A.** -0.0892

**Q.** SCARB2 (UniProt Q14108) was tested. Which thermal stability z-score did it give?
**A.** 0.368

**Q.** With MAP1S (UniProt Q66K74) as the target, how does the thermal stability z-score read?
**A.** -0.318

**Q.** How did the thermal stability z-score turn out when UTRN (UniProt P46939) was run?
**A.** -0.495

**Q.** For MYO6 (UniProt Q9UM54), which thermal stability z-score is on record?
**A.** -0.115

**Q.** For SMG1 (UniProt Q96Q15), which thermal stability z-score is on record?
**A.** 0.119

**Q.** For SF3B2 (UniProt Q13435), which thermal stability z-score is on record?
**A.** -0.135

**Q.** With EXOSC2 (UniProt Q13868) as the target, how does the thermal stability z-score read?
**A.** -0.593

**Q.** For ACAD9 (UniProt Q9H845), which thermal stability z-score is on record?
**A.** -0.21

**Q.** Which thermal stability z-score does the source give for LGMN (UniProt Q99538) here?
**A.** -0.193

**Q.** How did the thermal stability z-score turn out when COTL1 (UniProt Q14019) was run?
**A.** 0.699

**Q.** NLN (UniProt Q9BYT8) was tested. Which thermal stability z-score did it give?
**A.** -0.079

**Q.** Which thermal stability z-score does the source give for NMRAL1 (UniProt Q9HBL8) here?
**A.** 1.37

**Q.** Which thermal stability z-score does the source give for FOLR1 (UniProt P15328) here?
**A.** 0.366

**Q.** CHAMP1 (UniProt Q96JM3) was tested. Which thermal stability z-score did it give?
**A.** -0.567

**Q.** Which thermal stability z-score does the source give for RPS10 (UniProt P46783) here?
**A.** -0.422

**Q.** How did the thermal stability z-score turn out when CAPZB (UniProt P47756) was run?
**A.** 0.454

— the supplement of paper PMC12463676, “Small-molecule dissolution of stress granules by redox modulation benefits ALS models” (Nature Chemical Biology, 2025)
